≈ marks a conversion by molar mass, not a printed value. Like-named read-outs stand apart in the source and are kept apart here.
Columns and labels:
Assay type in all cases: physicochemical
[1] = Slurry study evaluated by XRPD
Method: About 20 mg of Compound 3, Form B was weighed into a sample vial and then 1 mL of solvent was added to make a suspension. The suspension was stirred at room temperature or 50° C. for 3 days and 11 days. Then, the wet solid was collected by filtration and analyzed by XRPD.
20-30 mg of Compound 4 Form B was added in 1 mL of selected solvents at room temperature or 50° C. The suspension was slurried at room temperature or 50° C. for 3 days and 11 days. The wet solids collected from filtration were examined by XRPD. There were four crystal forms obtained by slurrying, including di-mesylate Forms B, C and D as well as mono-mesylate Form G.

[2] = Water activity study (competition of forms, XRPD); conditions: room temperature
Method: Water activity study was performed using Compound 3 Form B (anhydrate) as the input material in EtOH/Water with different water content at RT. About 5 mg of Compound 3, Form B was used to prepare saturated solutions and the solutions were filtered by syringe at RT. 5 mg of Compound 3, Form D were added in the 1 mL of filtrate, and the suspension was slurried at RT for 3 and 7 days. The solids collected after filtration were analyzed by XRPD.
Protocol: excess amount of Compound 4 Form B was used to prepare saturated solutions. 6-8 mg each of Compound 4 Form B and Form D were added in the solutions. The suspension was slurried at room temperature for the corresponding times. Residual solids were collected by filtration with syringe filter, and characterized by XRPD.

[3] = Dynamic vapor sorption/desorption (DVS) with post-DVS XRPD
Method: Moisture sorption/desorption data were collected on a DVS Intrinsic. 7-20 mg of a sample was placed into a tared sample chamber and automatically weighed. The anhydrates were analyzed with the following setting parameters:
DVS experiments (FIGS. 17, 19, 21, 34, 35, 48 and 50) and XRPD post-DVS experiments (FIGS. 18, 20, 22, 36, 49 and 51) were conducted in order to study the deliquescence behaviour of the crystalline salts upon expose to humidity.

[4] = Estimated solubility by solvent addition method via visual assessment; conditions: thermodynamic from solid, room temperature, read-out: Solubility
Method: Solubility of Compound 3 Form B was estimated in 30 solvents at room temperature and in 9 organic solvents at 70° C. using solvent addition method via visual assessment.
Protocol: about 3 mg of Compound 3 Form B was weighed into a sample vial and the solvent was added gradually with vortex until the drug solution was clear by observation or a total of 2 mL solvent was added. Then, the estimated solubility (mg/mL) was calculated.
Solubility of Compound 4, Form B was estimated in 18 solvents at room temperature using solvent addition method via visual assessment. About 3 mg of Compound 4, Form B was weighed into a sample vial and the solvent was added gradually with vortex until the solution was clear by observation or a total of 2 mL solvent was added. Then, the estimated solubility (mg/mL) was calculated.

[5] = Solid stability testing (HPLC purity and XRPD)
Method: HPLC analysis were performed with an Agilent HPLC 1260 series instrument. HPLC method for stability testing is as follows:
Solid stability testing of Compound 3, Form D was evaluated at the conditions of 60° C. (capped) and 40° C./75% RH (open) for 7 days. Polymorphic form and purity were analyzed by XRPD and HPLC, respectively. […] (capped) and 40° C./75% RH (open) for 7 days.
Solid stability testing of Compound 4 Form B and Form D were evaluated at the conditions of 60° C. (vial close) and 40° C./75% RH (vial open) for 7 days. Polymorphic form and purity were checked by XRPD and HPLC, respectively.

[6] = slurry in ACN/Water (9/1, v/v) at RT

XRPD Result Day 3/Wet ([1]; slurry in 2-Me THF at 50° C.): Form D
XRPD Result Day 11/Wet ([1]; slurry in 2-Me THF at 50° C.): Form D
XRPD Result Day 3/Wet ([1]; slurry in 2-Me THF at RT): Form D
XRPD Result Day 11/Wet ([1]; slurry in 2-Me THF at RT): Form D
XRPD Result Day 3/Wet ([1]; slurry in ACN at 50° C.): Form B
XRPD Result Day 11/Wet ([1]; slurry in ACN at 50° C.): Form B
XRPD Result Day 3/Wet ([1]; slurry in ACN at RT): Form B
XRPD Result Day 11/Wet ([1]; slurry in ACN at RT): Form B
XRPD Result Day 3/Wet [1, 6]: Form D
XRPD Result Day 11/Wet [1, 6]: Form D
XRPD Result Day 3/Wet ([1]; slurry in Acetone at 50° C.): Form C
XRPD Result Day 11/Wet ([1]; slurry in Acetone at 50° C.): Form D
XRPD Result Day 11/Wet ([1]; slurry in Acetone at RT): Form D
XRPD Result Day 3/Wet ([1]; slurry in DCM at 50° C.): Form B
XRPD Result Day 3/Wet ([1]; slurry in DCM at RT): Form D
XRPD Result Day 11/Wet ([1]; slurry in DCM at RT): Form D
XRPD Result Day 3/Wet ([1]; slurry in EA at 50° C.): Form D
XRPD Result Day 11/Wet ([1]; slurry in EA at 50° C.): Form D
XRPD Result Day 11/Wet ([1]; slurry in EA at RT): Form D
XRPD Result Day 3/Wet ([1]; slurry in EtOH at RT): Form D
XRPD Result Day 11/Wet ([1]; slurry in EtOH at RT): Form D
XRPD Result Day 3/Wet ([1]; slurry in IPA at 50° C.): Form D
XRPD Result Day 11/Wet ([1]; slurry in IPA at 50° C.): Form D
XRPD Result Day 3/Wet ([1]; slurry in IPA at RT): Form D
XRPD Result Day 11/Wet ([1]; slurry in IPA at RT): Form D
XRPD Result Day 3/Wet ([1]; slurry in IPAC at 50° C.): Form D
XRPD Result Day 11/Wet ([1]; slurry in IPAC at 50° C.): Form D
XRPD Result Day 3/Wet ([1]; slurry in IPAC at RT): Form D
XRPD Result Day 11/Wet ([1]; slurry in IPAC at RT): Form D
XRPD Result Day 3/Wet ([1]; slurry in MEK at 50° C.): Form D
XRPD Result Day 11/Wet ([1]; slurry in MEK at 50° C.): Form D
XRPD Result Day 3/Wet ([1]; slurry in MEK at RT): Form D
XRPD Result Day 11/Wet ([1]; slurry in MEK at RT): Form D
XRPD Result Day 3/Wet ([1]; slurry in MTBE at 50° C.): Form D
XRPD Result Day 11/Wet ([1]; slurry in MTBE at RT): Form D
XRPD Result Day 3/Wet ([1]; slurry in MeOH at RT): Form B
XRPD Result Day 11/Wet ([1]; slurry in MeOH at RT): Form B
XRPD Result Day 3/Wet ([1]; slurry in THF at 50° C.): Form C
XRPD Result Day 3/Wet ([1]; slurry in THF at RT): Form C
XRPD Result Day 11/Wet ([1]; slurry in THF at RT): Form D
XRPD Result ([1]; slurry in Water at RT or 50° C. for 3 days): Mono-mesylate Form G was obtained.
water activity (aw) at which the form is stable / the most stable form [2]: ≤ 0.08
Comments: hygroscopicity (DVS) [3]: Hygroscopic
hygroscopicity [3]: hygroscopic
Post-DVS XRPD ([3]; XRPD after DVS versus before): No change
wt % gain (DVS) ([3]; at 80% RH (25° C.)): 9.16 wt %
water uptake (DVS) ([3]; at 80% RH, 25° C.): 9.16%
Reversibility (DVS) ([3]; sorption/desorption): Reversible
solubility ([4]; organic solvent or mixture, 2-Me THF): < 1500 µg/mL
solubility ([4]; organic solvent or mixture, ACN): < 1500 µg/mL
solubility ([4]; organic solvent or mixture, ACN/Water (9/1, v/v)): 15000 to 20000 µg/mL (≈ 29.7 to 39.6 mM)
solubility ([4]; organic solvent or mixture, Acetone): < 1500 µg/mL
solubility ([4]; organic solvent or mixture, DCM): < 1500 µg/mL
solubility ([4]; organic solvent or mixture, DMA): 75000 to 150000 µg/mL (≈ 148 to 297 mM)
solubility ([4]; organic solvent or mixture, DMSO): > 150000 µg/mL
solubility ([4]; organic solvent or mixture, EA): < 1500 µg/mL
solubility ([4]; organic solvent or mixture, EtOH): 3750 to 7500 µg/mL (≈ 7.42 to 14.8 mM)
solubility ([4]; organic solvent or mixture, IPA): < 1500 µg/mL
solubility ([4]; organic solvent or mixture, IPAC): < 1500 µg/mL
solubility ([4]; organic solvent or mixture, MEK): < 1500 µg/mL
solubility ([4]; organic solvent or mixture, MTBE): < 1500 µg/mL
solubility ([4]; organic solvent or mixture, MeOH): 12000 to 20000 µg/mL (≈ 23.7 to 39.6 mM)
solubility ([4]; organic solvent or mixture, MeOH/Water (9/1, v/v)): 75000 to 150000 µg/mL (≈ 148 to 297 mM)
solubility ([4]; organic solvent or mixture, NMP): > 150000 µg/mL
solubility ([4]; organic solvent or mixture, THF): < 1500 µg/mL
solubility ([4]; Water): 75000 to 150000 µg/mL (≈ 148 to 297 mM)
Solid stability ([5]; 40° C./75% RH (open), day 7): partially converted to Form D
Solid stability ([5]; 60° C. (close), 7 days): chemically and physically stable
Purity, Initial T0 ([5]; HPLC, before storage): 99.47%
Purity - 7 days, 60° C. ([5]; HPLC, capped/closed vial, 7 days): 99.41%
Purity - 7 days, 40° C./75% RH ([5]; HPLC, open, 7 days): 99.18%
XRPD, Initial T0 ([5]; before storage): Form B
XRPD - 7 days, 60° C. ([5]; capped/closed vial, 7 days): Form B
SMILES: Cc1n[nH]c2nc(-c3ccc(NS(=O)(=O)c4cc(F)ccc4F)c(F)c3)nc(NCCN(C)C)c12 [Compound 4 Form B]

From patent publication US20250320215A1, “SALTS OF N-[4-(4-[[2-(DIMETHYLAMINO)ETHYL]AMINO]-3-METHYL-1H-PYRAZOLO[3,4-D]PYRIMIDIN-6-YL)-2-FLUOROPHENYL]-2,5-DIFLUOROBENZENESULFONAMIDE AND CRYSTALLINE FORMS THEREOF” (THRYV THERAPEUTICS INC, priority 2022, published 2025)
